Where “and” joins values, the source holds several entries; their conditions need not be identical. Equal values may be shown once. Toxic doses and inconclusive results are not listed.

The test system of this test is P388 leukemia ip, CD2F1 mice, survival T/C. In words: NCI In Vivo Anticancer Drug Screen. Data for tumor model P388 Leukemia (intraperitoneal) in CD2F1 (CDF1) mice. The note with it: endpoint: median survival time, higher = longer survival. In a few lines: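 Mice carrying the transplanted tumor received test compound or vehicle. Survival was recorded in each group, and the value is the treated-group measurement divided by that of the vehicle-treated control group.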

[1] abbreviates: dose: 50.0 mg/kg/injection, schedule: Q01DX005 (ip), vehicle: saline with Tween-80.
The mark [2] stands for this setting: dose: 100.0 mg/kg/injection, schedule: Q01DX005 (ip), vehicle: saline with Tween-80.
Where [3] appears, read: dose: 200.0 mg/kg/injection, schedule: Q01DX005 (ip), vehicle: saline with Tween-80.

Regarding `CC(C)S.[Cu+2]`, the T/C was 114 % of control (dose: 6.25 mg/kg/injection, schedule: Q01DX009 (ip), vehicle: saline with Tween-80); 97 % of control (dose: 12.5 mg/kg/injection, schedule: Q01DX009 (ip), vehicle: saline with Tween-80); 109 % of control (dose: 25.0 mg/kg/injection, schedule: Q01DX009 (ip), vehicle: saline with Tween-80).
With `CC(=O)OC1COC(Nc2[nH]c(=O)n(C)c(=O)c2C(=O)CCl)C(OC(C)=O)C1OC(C)=O` (stereo not drawn), the T/C is, setting by setting: under setting [1], 104 % of control; under setting [2], 96 % of control; under setting [3], 93 % of control.
For the compound `CNC(=O)OCCC(OC(=O)NC)C1CCC2C3CC=C4CC(O)CCC4(C)C3CCC12C` (stereo not drawn), the T/C is 100 % of control (dose: 50.0 mg/kg/injection, schedule: Q01DX005 (ip), vehicle: Klucel (hydroxypropylcellulose) (HPC)); 102 % of control (dose: 100.0 mg/kg/injection, schedule: Q01DX005 (ip), vehicle: Klucel (hydroxypropylcellulose) (HPC)); 97 % of control (dose: 200.0 mg/kg/injection, schedule: Q01DX005 (ip), vehicle: Klucel (hydroxypropylcellulose) (HPC)).
For the compound `CCOP(O)(=S)OCC.[Tb]`, the T/C by setting is: (dose: 100.0 mg/kg/injection, schedule: Q04DX003 (ip), vehicle: Klucel (hydroxypropylcellulose) (HPC)) 92 % of control; (dose: 200.0 mg/kg/injection, schedule: Q04DX003 (ip), vehicle: Klucel (hydroxypropylcellulose) (HPC)) 87 % of control; (dose: 400.0 mg/kg/injection, schedule: Q04DX003 (ip), vehicle: Klucel (hydroxypropylcellulose) (HPC)) 90 % of control.
Consider `O=C(O)Cc1cn2cc(Cl)ccc2n1`, for which the T/C (dose: 100.0 mg/kg/injection, schedule: Q01DX001 (ip), vehicle: Klucel (hydroxypropylcellulose) (HPC)) is 102 % of control; the T/C (dose: 200.0 mg/kg/injection, schedule: Q01DX001 (ip), vehicle: Klucel (hydroxypropylcellulose) (HPC)) is 101 % of control; the T/C (dose: 400.0 mg/kg/injection, schedule: Q01DX001 (ip), vehicle: Klucel (hydroxypropylcellulose) (HPC)) is 95 % of control.
`CC(=O)N(C)C`: the T/C is, setting by setting: (dose: 0.25 % in 0.5 ml injection vol, schedule: Q01DX009 (ip), vehicle: water) 102 % of control; (dose: 0.5 % in 0.5 ml injection vol, schedule: Q01DX009 (ip), vehicle: water) 100 % of control and 102 % of control; (dose: 1.0 % in 0.5 ml injection vol, schedule: Q01DX009 (ip), vehicle: water) 99 % of control and 102 % of control; (dose: 2.0 % in 0.5 ml injection vol, schedule: Q01DX009 (ip), vehicle: water) 100 % of control and 101 % of control; (dose: 8.0 % in 0.5 ml injection vol, schedule: Q01DX009 (ip), vehicle: water) 112 % of control and 113 % of control; (dose: 16.0 % in 0.5 ml injection vol, schedule: Q01DX009 (ip), vehicle: water) 108 % of control.
As to `CCN(CC)c1ccc(/C=N/Nc2cc(C)nc3ccc(C4CCCCC4)cc23)cc1`, the T/C is, setting by setting: under setting [1], 90 % of control; under setting [2], 100 % of control; under setting [3], 118 % of control.
As to `CC(OC1OC(C(=O)O)C(O)C(O)C1O)c1ccccc1` (stereo not drawn), the T/C is 100 % of control (dose: 200.0 mg/kg/injection, schedule: Q01DX009 (ip), vehicle: saline sonified) and 95 % of control (dose: 400.0 mg/kg/injection, schedule: Q01DX009 (ip), vehicle: saline sonified).
Consider `N#CC1=C(C#N)CC(c2ccccc2)CC1` (stereo not drawn), for which the T/C is, setting by setting: (dose: 50.0 mg/kg/injection, schedule: Q01DX009 (ip), vehicle: saline) 104 % of control; (dose: 100.0 mg/kg/injection, schedule: Q01DX009 (ip), vehicle: saline) 100 % of control; (dose: 200.0 mg/kg/injection, schedule: Q01DX009 (ip), vehicle: saline) 96 % of control.
For the compound `COc1ccc(OC)c(/C=N/N=C2\C(=O)Nc3c(Cl)cc(Cl)cc32)c1`, the T/C by setting is: under setting [1], 97 % of control; under setting [2], 98 % of control; under setting [3], 92 % of control.
Take `COc1cccc2c(NCCCCCCNc3c4ccccc4nc4c(OC)cccc34)c3ccccc3nc12`: the T/C reads like this: (dose: 0.62 mg/kg/injection, schedule: Q## X009 (ip), vehicle: lactic acid) 123 % of control; (dose: 0.63 mg/kg/injection, schedule: Q01DX009 (ip), vehicle: other) 102 % of control; (dose: 1.25 mg/kg/injection, schedule: Q01DX009 (ip), vehicle: other) 122 % of control; (dose: 2.5 mg/kg/injection, schedule: Q## X009 (ip), vehicle: lactic acid) 160 % of control; (dose: 5.0 mg/kg/injection, schedule: Q## X009 (ip), vehicle: lactic acid) 161 % of control; (dose: 10.0 mg/kg/injection, schedule: Q## X009 (ip), vehicle: lactic acid) 119 % of control.

These data come from PubChem BioAssay AID330 (DTP/NCI, 2004).
